Patent US20220267310A1, “QUINAZOLINE AND CINNOLINE DERIVATIVES AS DNA-PK INHIBITOR” (MEDSHINE DISCOVERY INC., priority 2019, published 2022)

Assays:
[1] = Pharmacokinetic evaluation in mice, IV and PO; type: in vivo, Balb/c female mice; conditions: for Bioavailability (%): mouse
Protocol: The tested compound was mixed with 10% DMSO/50% PEG400/40% water, vortexized and ultrasonic to prepare 0.2 mg/mL or 0.4 mg/ml, approximately clarified solution, which was filtered by a microporous membrane and then standby. Balb/c female mice of 18-20 g were selected and given the candidate compound solution intravenously at a dose of 1 or 2 mg/kg. The tested compound was mixed with 10% DMSO/50% PEG400/40% water, vortexized and ultrasonic to prepare 0.2 mg/mL or 1 mg/mL approximately clarified solution, which was filtered by a microporous membrane and then standby. Balb/c female mice of 18 to 20 g were selected and given orally the candidate compound solution at a dose of 2 or 10 mg/kg. Whole blood was collected for a certain period of time, and plasma was prepared. Drug concentration was analyzed by LC-MS/MS method, and pharmacokinetic parameters were calculated by Phoenix WinNonlin software (US Pharsight company).
C0: instantaneous concentration required after intravenous injection; Cmax: the highest blood concentration after administration; Tmax: time required to reach peak concentration after administration; T1/2: the time required for blood drug concentration to decrease by half; Vdss: apparent volume of distribution, which refers to the ratio constant of drug dosage to blood concentration when a drug reaches dynamic equilibrium in vivo. Cl: clearance rate, referring to drug apparent distribution volume number removed from the body per unit time; Tlast: time of last detection point: AUC0-last: an area under a drug duration curve, referring to an area surrounded by the blood drug concentration curve on the time axis; Bioavailability: a measure of the rate and extent of drug absorption into the blood circulation, which was an important index to evaluate drug absorption degree.

[2] = tested on: human head and neck cancer FaDu cell subcutaneous xenograft tumor; experiment: FaDu subcutaneous xenograft, mono and combination with radiotherapy; type: in vivo; conditions: for Tumor volume (mm^3), 3 days after administration: day 3; for Tumor volume (mm^3), 3 days after administration / Tumor volume (mm^3), 7 days after administration / Tumor volume (mm^3), 10 days after administration / Tumor volume (mm^3), 14 days after administration / Tumor volume (mm^3), 17 days after administration / Tumor volume (mm^3), 23 days after administration / Tumor volume (mm^3), 28 days after administration / Tumor volume (mm^3), 31 days after administration / Tumor volume (mm^3), 35 days after administration / Tumor volume (mm^3), 42 days after administration / Tumor volume (mm^3), 49 days after administration / Tumor volume (mm^3), 56 days after administration / Tumor volume (mm^3), 63 days after administration / Tumor volume (mm^3), 70 days after administration / Tumor volume (mm^3) (0th day) / Tumor volume (mm^3) (21th day): average ± SEM, n = 8; for Tumor volume (mm^3), 7 days after administration: day 7; for Tumor volume (mm^3), 10 days after administration: day 10; for Tumor volume (mm^3), 14 days after administration: day 14; for Tumor volume (mm^3), 17 days after administration: day 17; for Tumor volume (mm^3), 23 days after administration: day 23; for Tumor volume (mm^3), 28 days after administration: day 28; for Tumor volume (mm^3), 31 days after administration: day 31; for Tumor volume (mm^3), 35 days after administration: day 35; for Tumor volume (mm^3), 42 days after administration: day 42; for Tumor volume (mm^3), 49 days after administration: day 49; for Tumor volume (mm^3), 56 days after administration: day 56; for Tumor volume (mm^3), 63 days after administration: day 63; for Tumor volume (mm^3), 70 days after administration: day 70; for RTV (21th day) / T/C (%) (21th day) / TGI (%) (21th day) / Tumor volume (mm^3) (0th day) / Tumor volume (mm^3) (21th day): PO
Protocol: Experiment purpose: The antitumor activity of the tested compound was evaluated in a nude mouse model of human head and neck cancer FaDu cell subcutaneous xenograft tumor
Experimental animals: Female BALB/c nude mice, 6-8 weeks old, weighing 17-23 grams; supplier: B&K Universal Group Limited
Human head and neck cancer FaDu cell (ATCC, Manassas. Virginiaite, item number: HTB-43) was cultured in vitro in a culture condition of EMEM medium with 10% fetal bovine serum, 100 U/mL penicillin and 100 μg/mL streptomycin, incubated at 37° C. and 5% CO2. Conventional digestive treatment passage was carried out using pancreatic enzyme—EDTA twice a week.
Each mouse was subcutaneously inoculated with 0.1 mL ([…]) FaDu cells at the right dorsal position, and when the average tumor volume reaches about 106 mm^3, randomization was used for initiating drug administration.
The tested compound was prepared as a 5 mg/mL clarified solution with 10% DMSO+50% polyethylene glycol 400+40% water as the solvent. Preparation was conducted every three days.
The experimental indicators refers to study whether tumor growth was inhibited, delayed, or cured. Tumor diameter was measured twice a week with a vernier caliper. The calculation formula of the tumor volume was V=0.5a×b^2, and a and b represent the long diameter and short diameter of the tumor, respectively.
The antitumor efficacy of the compound was evaluated by TGI (%) or relative tumor proliferation rate T/C (%). TGI (%) reflects the tumor growth inhibition rate. The calculation of TGI (%): TGI (%)=[1−(average tumor volume at the end of administration of a certain treatment group−average tumor volume at the beginning of administration of the treatment group)/(average tumor volume at the end of treatment in solvent control group−average tumor volume at the beginning of treatment in solvent control group)]×control group.
Relative tumor proliferation rate T/C (%): the calculation formula was as follows: T/C %=[…] TRTV/CRTV group (TRTV: treatment group RTV: CRTV: negative control group RTV). According to results of tumor measurement. Relative Tumor Volume (RTV) was calculated by the formula RTV=Vt/V0, where V0 was the average tumor volume measured in group administration (i.e., d0), and Vt was the average tumor volume measured in a certain single measurement. TRTV and CRTV collect data on the same day.
Statistic analysis includes an average value and a standard error (SEM) of tumor volume at each time point for each group. […] If there was no significant difference in F value, Dunnet (2-sided) method was applied to analysis. All data were analyzed using SPSS 17.0. P<0.05 was considered as having a significant difference.

[3] = 25 mg/kg, QD + radiotherapy 2 Gy
[4] = 50 mg/kg, QD + radiotherapy 2 Gy

For `COc1ccc(C(O)c2cc(-c3cnnc4c(F)c(N5CCOCC5)cc(F)c34)c(F)cc2Cl)nn1` (single isomer, unassigned) [Embodiment 19], the “AUC0-last” value ([1]; IV(1 mg/kg), mouse plasma) was 1569 nM·h, the C0 ([1]; IV(1 mg/kg), mouse plasma) was 1290 nM and the “Cl” value ([1]; IV(1 mg/kg), mouse plasma) was 20.2 mL/min/kg. For the same compound, the “T1/2” value ([1]; IV(1 mg/kg), mouse plasma) was 1.31 h, the “Tlast” value ([1]; IV(1 mg/kg), mouse plasma) was 8.00 h and the “Vdss” value ([1]; IV(1 mg/kg), mouse plasma) was 2.13 L/kg. For the same compound, the “AUC0-last” value ([1]; IV(2 mg/kg), mouse plasma) was 3832 nM·h, the C0 ([1]; IV(2 mg/kg), mouse plasma) was 2250 nM and the “Tlast” value ([1]; IV(2 mg/kg), mouse plasma) was 8.00 h. For the same compound, the “Bioavailability (%)” value ([1]; PO(2 mg/kg)) was 47.9%, the “AUC0-last” value ([1]; PO(2 mg/kg), mouse plasma) was 1503 nM·h and the Cmax ([1]; PO(2 mg/kg), mouse plasma) was 448 nM. For the same compound, the “T1/2” value ([1]; PO(2 mg/kg), mouse plasma) was 8.14 h, the “Tlast” value ([1]; PO(2 mg/kg), mouse plasma) was 8.00 h and the “Tmax” value ([1]; PO(2 mg/kg), mouse plasma) was 15 min. The “Bioavailability (%)” value ([1]; PO(10 mg/kg)) was 70.5%, the “AUC0-last” value ([1]; PO(10 mg/kg), mouse plasma) was 13737 nM·h and the Cmax ([1]; PO(10 mg/kg), mouse plasma) was 2740 nM. For the same compound, the “T1/2” value ([1]; PO(10 mg/kg), mouse plasma) was 1.78 h, the “Tlast” value ([1]; PO(10 mg/kg), mouse plasma) was 12.0 h and the “Tmax” value ([1]; PO(10 mg/kg), mouse plasma) was 60 min. For the same compound, the “Tumor volume (mm^3), 3 days after administration” value (“Tumor volume (mm^3), 3 days” below) ([2]; 25 mg/kg + 2 Gy) was 172 ± 16 mm^3, the “Tumor volume (mm^3), 7 days after administration” value (“Tumor volume (mm^3), 7 days” for short) ([2]; 25 mg/kg + 2 Gy) was 136 ± 11 mm^3 and the “Tumor volume (mm^3), 10 days after administration” value (from here on “Tumor volume (mm^3), 10 days”) ([2]; 25 mg/kg + 2 Gy) was 76 ± 11 mm^3. The “Tumor volume (mm^3), 14 days after administration” value (shortened to “Tumor volume (mm^3), 14 days”) ([2]; 25 mg/kg + 2 Gy) was 29 ± 5 mm^3, the “Tumor volume (mm^3), 17 days after administration” value (“Tumor volume (mm^3), 17 days” below) ([2]; 25 mg/kg + 2 Gy) was 11 ± 3 mm^3 and the “Tumor volume (mm^3), 23 days after administration” value (from here on “Tumor volume (mm^3), 23 days”) ([2]; 25 mg/kg + 2 Gy) was 1 ± 1 mm^3. The “Tumor volume (mm^3), 28 days after administration” value ([2]; 25 mg/kg + 2 Gy) was 0 ± 0 mm^3, the “Tumor volume (mm^3), 31 days after administration” value ([2]; 25 mg/kg + 2 Gy) was 0 ± 0 mm^3 and the “Tumor volume (mm^3), 35 days after administration” value ([2]; 25 mg/kg + 2 Gy) was 0 ± 0 mm^3. For the same compound, the “Tumor volume (mm^3), 42 days after administration” value ([2]; 25 mg/kg + 2 Gy) was 0 ± 0 mm^3, the “Tumor volume (mm^3), 49 days after administration” value ([2]; 25 mg/kg + 2 Gy) was 0 ± 0 mm^3 and the “Tumor volume (mm^3), 56 days after administration” value ([2]; 25 mg/kg + 2 Gy) was 0 ± 0 mm^3. For the same compound, the “Tumor volume (mm^3), 63 days after administration” value ([2]; 25 mg/kg + 2 Gy) was 0 ± 0 mm^3, the “Tumor volume (mm^3), 70 days after administration” value ([2]; 25 mg/kg + 2 Gy) was 0 ± 0 mm^3 and the “RTV (21th day)” value [2, 3] was 0.01 ± 0.01. The “T/C (%) (21th day)” value [2, 3] was 0.08%, the “TGI (%) (21th day)” value [2, 3] was 108.61% and the “Tumor volume (mm^3) (0th day)” value ([2]; 25 mg/kg, QD + radiotherapy 2 Gy, 5-day radiotherapy, 2-day withdrawal) was 106 ± 6 mm^3. The “Tumor volume (mm^3) (21th day)” value [2, 3] was 1 ± 1 mm^3, the “Tumor volume (mm^3), 3 days” value ([2]; 50 mg/kg + 2 Gy) was 175 ± 14 mm^3 and the “Tumor volume (mm^3), 7 days” value ([2]; 50 mg/kg + 2 Gy) was 155 ± 17 mm^3. The “Tumor volume (mm^3), 10 days” value ([2]; 50 mg/kg + 2 Gy) was 97 ± 16 mm^3, the “Tumor volume (mm^3), 14 days” value ([2]; 50 mg/kg + 2 Gy) was 45 ± 10 mm^3 and the “Tumor volume (mm^3), 17 days” value ([2]; 50 mg/kg + 2 Gy) was 12 ± 5 mm^3. The “Tumor volume (mm^3), 23 days” value ([2]; 50 mg/kg + 2 Gy) was 1 ± 1 mm^3, the “Tumor volume (mm^3), 28 days after administration” value ([2]; 50 mg/kg + 2 Gy) was 1 ± 0 mm^3 and the “Tumor volume (mm^3), 31 days after administration” value ([2]; 50 mg/kg + 2 Gy) was 0 ± 0 mm^3. The “Tumor volume (mm^3), 35 days after administration” value ([2]; 50 mg/kg + 2 Gy) was 0 ± 0 mm^3, the “Tumor volume (mm^3), 42 days after administration” value ([2]; 50 mg/kg + 2 Gy) was 0 ± 0 mm^3 and the “Tumor volume (mm^3), 49 days after administration” value ([2]; 50 mg/kg + 2 Gy) was 0 ± 0 mm^3. For the same compound, the “Tumor volume (mm^3), 56 days after administration” value ([2]; 50 mg/kg + 2 Gy) was 0 ± 0 mm^3, the “Tumor volume (mm^3), 63 days after administration” value ([2]; 50 mg/kg + 2 Gy) was 0 ± 0 mm^3 and the “Tumor volume (mm^3), 70 days after administration” value ([2]; 50 mg/kg + 2 Gy) was 0 ± 0 mm^3. The “animal death or euthanasia during the study” value ([2]; 50 mg/kg alone, one animal of the group) was “euthanized 22 days after the start of administration”, the “Tumor volume (mm^3), 3 days” value ([2]; 50 mg/kg alone) was 189 ± 18 mm^3 and the “Tumor volume (mm^3), 7 days” value ([2]; 50 mg/kg alone) was 375 ± 28 mm^3. For the same compound, the “Tumor volume (mm^3), 10 days” value ([2]; 50 mg/kg alone) was 568 ± 50 mm^3, the “Tumor volume (mm^3), 14 days” value ([2]; 50 mg/kg alone) was 946 ± 108 mm^3 and the “Tumor volume (mm^3), 17 days” value ([2]; 50 mg/kg alone) was 1120 ± 131 mm^3. For the same compound, the “Tumor volume (mm^3), 23 days” value ([2]; 50 mg/kg alone) was 1808 ± 372 mm^3, the “RTV (21th day)” value [2, 4] was 0.01 ± 0.01 and the “T/C (%) (21th day)” value [2, 4] was 0.08%. The “TGI (%) (21th day)” value [2, 4] was 108.64%, the “Tumor volume (mm^3) (0th day)” value ([2]; 50 mg/kg, QD + radiotherapy 2 Gy, 5-day radiotherapy, 2-day withdrawal) was 106 ± 5 mm^3 and the “Tumor volume (mm^3) (21th day)” value [2, 4] was 1 ± 1 mm^3. For the same compound, the “RTV (21th day)” value ([2]; 50 mg/kg, QD, alone) was 14.18 ± 2.04, the “T/C (%) (21th day)” value ([2]; 50 mg/kg, QD, alone) was 114.35% and the “TGI (%) (21th day)” value ([2]; 50 mg/kg, QD, alone) was −15.37%. The “Tumor volume (mm^3) (0th day)” value ([2]; 50 mg/kg, QD, alone) was 106 ± 5 mm^3 and the “Tumor volume (mm^3) (21th day)” value ([2]; 50 mg/kg, QD, alone) was 1501 ± 242 mm^3.
